Tests used:
NF-κB = experiment: RANKL-induced NF-κB activation in RAW264.7 cells (gel mobility shift assay); type: cell-based, mouse; conditions: peptide pre-treatment 5 h, RANKL 10 nM 15 min (FIG. 4A)
Protocol: RAW264.7 cells were plated in 6-well plates and treated with the indicated peptides for 5 h, then treated with RANKL (10 nM) for 15 mm. Nuclear and cytoplasmic extracts were prepared and a gel mobility shift assays was performed with 8 μg of nuclear extracts as described below.
Nuclear extracts were prepared from transfected cells essentially as described (34). Equivalent amounts of nuclear protein were used in an EMSA reaction with ^32P-labeled NF-κB oligonucleotide from HIV-LTR as described (34). NF-κB activation was quantitated using a PhosphoImager and Imagequant Software.
A mutant form of the receptor activator of NF-κB which contains only the TRAF6 binding domain is sufficient to activate NF-κB (8), and a dominant negative TRAF6 inhibits RANK-mediated NF-κB activation in 293 cells (9). To investigate the effect of the TRAF6 binding peptides on RANKL-induced NF-κB activation, NF-κB activation was examined in RAW264.7 cells that activated NF-κB when stimulated with RANKL (37). RANKL-stimulated RAW264.7 cells activated NF-κB as indicated by a gel mobility shift assay (FIG. 4A).

[1] = target: T1, TRAF5 binding to the cytoplasmic domain of RANK (Mus musculus, UniProt P70191); experiment: Competitive GST-pull down assay, TRAF5 binding to RANK cytoplasmic domain; conditions: 100 μM peptide, FLAG-TRAF5 293 cell extract (FIG. 4C)
T1 construct: expressed in transfected cells; host or cells: human 293 cells (TRAF lysate); The GST-RANK fusion was purified as previously described
Protocol: (§1) Cellular extracts from human 293 cells transfected with either FLAG-TRAF2, -TRAF5, or -TRAF6 were mixed with GST or GST-RANKed in the absence or presence of 100 μM of the indicated peptides. A GST-pull down assay was performed as described below. The bound TRAFs were visualized by immunoblotting with anti-FLAG antibodies.
(§2) Equivalent amounts of GST or GST-RANK cytoplasmic domain (GST-RANKed) fusion protein attached to 20 μl of glutathione agarose beads were mixed with lysates (50 μg) from 293 cells programmed to express the epitope-tagged TRAF protein and the indicated peptides in binding buffer (20 mM TRIS, pH 8, 150 mM NaCl, 1 mM DTT, 2 mM EDTA, and 0.1% NP-40) and allowed to rotate for 1 h at 4° C. The beads were collected by centrifugation, washed three times in binding buffer, and then washed once in low-salt buffer (20 mM TRIS, pH 8, 50 mM NaCl, and 1 mM DTT). Bound proteins were eluted with addition of SDS-sample buffer and boiled. The eluted proteins were subjected to 7.5% SDS-PAGE and western blot analysis was performed with anti-FLAG antibodies.
(§3) The cytoplasmic domain of RANK interacts with many TRAF molecules, including TRAF1, 2, 3, 5, and 6 (7-9, 11, 12). While TRAF1, 2, 3, and 5 interact with the c-terminal tail of receptor activator of NF-κB, TRAF6 interacts with a membrane proximal region of the cytoplasmic domain of the receptor activator of NF-κB. […]

[2] = target: T2, TRAF6 binding to the RANK cytoplasmic domain (Mus musculus, UniProt P70196); experiment: Competitive GST-pull down assay, TRAF6 binding to RANK cytoplasmic domain; conditions: 100 μM peptide, FLAG-TRAF6 293 cell extract, GST-RANK cytoplasmic domain (FIG. 4C)
T2 construct: expressed in transfected cells; host or cells: human 293 cells (TRAF lysate); The GST-RANK fusion was purified as previously described
T2 sequence (P70196 1-530): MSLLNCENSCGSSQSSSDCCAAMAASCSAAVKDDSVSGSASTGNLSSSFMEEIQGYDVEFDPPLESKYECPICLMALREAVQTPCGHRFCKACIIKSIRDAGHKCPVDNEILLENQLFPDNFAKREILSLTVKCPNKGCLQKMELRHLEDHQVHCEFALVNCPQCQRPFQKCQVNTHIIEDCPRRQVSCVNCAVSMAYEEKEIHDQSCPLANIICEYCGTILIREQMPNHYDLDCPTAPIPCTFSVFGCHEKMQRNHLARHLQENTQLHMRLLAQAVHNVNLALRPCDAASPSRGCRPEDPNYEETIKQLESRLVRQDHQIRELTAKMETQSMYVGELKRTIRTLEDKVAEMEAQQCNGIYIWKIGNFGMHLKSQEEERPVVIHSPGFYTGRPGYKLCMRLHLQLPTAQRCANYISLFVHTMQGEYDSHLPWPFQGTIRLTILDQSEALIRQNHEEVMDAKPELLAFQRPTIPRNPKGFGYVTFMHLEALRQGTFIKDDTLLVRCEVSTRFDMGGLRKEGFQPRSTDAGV
Protocol: as §1, §2, §3

[3] = tested on: bone marrow-derived mouse monocytes; experiment: RANKL and M-CSF-mediated osteoclast differentiation in bone marrow-derived mouse monocytes (TRAP staining); type: cell-based
Protocol: After 6-7 days, the cells were fixed and stained for TRAP. The numbers of multi-nucleated, TRAP positive osteoclasts were counted.
Mouse-derived monocytes were plated in 48-well plates and costimulated as in FIG. 3A with murine M-CSF (10 ng/ml) and RANKL (30 ng/ml) in the absence (left panel) or presence of the indicated peptides. After 6-7 days, the cells were fixed and stained for TRAP. A representative field from each well was taken at a magnification of 10×.
Primary bone marrow monocytes (BM) or RAW264.7 cells were cultured in 48-well dishes at a density of 1×10^5 cells/well or 2×10^3 cells/well, and then treated with the indicated factors at the beginning of the culture and during a medium change on day 3. Osteoclast formation was assessed by counting the total number of multi-nucleated (>3 nuclei), TRAP-positive cells present per well between day 7 and 10 (BM) or on day 5 (RAW264.7) (30).
To further support the results obtained from the RAW264.7 cell line, the ability of these peptides to inhibit RANKL-mediated osteoclast differentiation in primary mouse-derived monocytes was tested. Costimulation of bone marrow-derived monocytes with RANKL and M-CSF cause osteoclast differentiation after 7-10 days, as determined by staining multi-nucleated, TRAP positive osteoclasts (30). Similar to the results with RAW264.7 cells, both L-T6DP-1 and L-T6DP-2 inhibited the development of TRAP positive osteoclast in a dose-dependent manner and L-T6DP-1 was much more efficient (FIGS. 3A and 3B).

T1 sequence (P70191 whole entry, the tested form may be a part): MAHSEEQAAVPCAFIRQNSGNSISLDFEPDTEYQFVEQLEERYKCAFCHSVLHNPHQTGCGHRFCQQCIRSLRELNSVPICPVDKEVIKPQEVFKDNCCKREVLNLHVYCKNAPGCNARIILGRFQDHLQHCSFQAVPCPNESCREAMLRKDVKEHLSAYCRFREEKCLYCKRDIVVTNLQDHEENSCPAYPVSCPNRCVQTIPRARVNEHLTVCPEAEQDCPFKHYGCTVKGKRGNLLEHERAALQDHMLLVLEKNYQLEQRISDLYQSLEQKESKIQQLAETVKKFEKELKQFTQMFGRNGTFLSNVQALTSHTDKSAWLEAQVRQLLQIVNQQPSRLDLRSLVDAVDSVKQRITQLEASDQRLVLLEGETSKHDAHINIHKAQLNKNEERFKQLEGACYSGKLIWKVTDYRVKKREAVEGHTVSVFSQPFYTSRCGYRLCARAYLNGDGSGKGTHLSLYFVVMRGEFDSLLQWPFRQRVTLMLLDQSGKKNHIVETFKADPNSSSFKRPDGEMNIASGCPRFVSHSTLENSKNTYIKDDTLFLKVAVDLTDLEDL

L-T6DP-1: Kaposi fibroblast growth factor signal sequence hydrophobic domain attached to murine RANK peptide containing the known TRAF6 binding domain (AAVALLPAVLLALLAPRKIPTEDEYTDRPSQPST; PEPTIDE Peptide L-T6Bp-1)
RANKL-induced NF-κB activation (NF-κB): suppressed in a dose-dependent manner | TRAF5 binding to the cytoplasmic domain of RANK [1]: neither L-T6DP-1 nor L-T6DP-2 inhibited | TRAF6 interaction with the cytoplasmic domain of RANK [2]: inhibited | development of TRAP positive osteoclasts ([3]; M-CSF 10 ng/ml and RANKL 30 ng/ml (FIGS. 3A, 3B)): inhibited | multi-nucleated osteoclasts ([3]; M-CSF and RANKL, 30 μM peptide, cells still TRAP positive (FIG. 3B)): multi-nucleated osteoclast were not observed | osteoclasts ([3]; M-CSF and RANKL, 100 μM peptide (FIG. 3B)): no osteoclasts were observed
